*1 amine or outer side, *2 acyl side, *3 side chain or, on linkers, in order; H or OH if unused. Where a SMILES comes first, the peptide text is derived from it. Side-chain parts run from the residue outwards. [ ]: non-standard residue; d: D form. The star is where a group is joined. C20 diacid = O=C(O)CCCCCCCCCCCCCCCCCCC(=O)*; γGlu = O=C(O)[C@H](CCC(=O)[*:2])N[*:1]; αMeL = CC(C)C[C@](C)(N)C(=O)O; AEEA = NCCOCCOCC(=O)O; Aib = CC(C)(N)C(=O)O
Legend:
hGLP-1R = hGLP-1R (Homo sapiens, UniProt P43220); assay: cAMP assay in HEK293 cells expressing hGLP-1R, 0.1% casein; format: cell-based; conditions: in the presence of 0.1% casein; read-out: cAMP EC50, GLP-1R
[1] = molecular target: T1, human glucagon receptor (GcgR) (Homo sapiens, UniProt P47871); assay: Radioligand competition binding (SPA), human GcgR membranes; conditions: HEK293 membranes, SPA, bacitracin present; mean; read-out: Ki, GcgR
T1 construct: expressed in transfected cells; host or cells: HEK293 (membranes)
From the text: (§1) Radioligand competition binding assays are run to determine the equilibrium dissociation constant for exemplary compounds and comparator molecules.
(§2) Competition curves are plotted as the percent specific inhibition (y-axis) versus log concentration of compound (x-axis) and analyzed using a four parameter nonlinear regression fit with variable slope (ABase or Genedata).

[2] = molecular target: T2, human GIP receptor (GIPR) (Homo sapiens, UniProt P48546); assay: Radioligand competition binding (SPA), human GIPR membranes; conditions: HEK293 membranes, SPA, bacitracin present; mean; read-out: Ki, GIPR
T2 construct: expressed in transfected cells; host or cells: HEK293 (membranes)
T2 sequence (P48546 22-466): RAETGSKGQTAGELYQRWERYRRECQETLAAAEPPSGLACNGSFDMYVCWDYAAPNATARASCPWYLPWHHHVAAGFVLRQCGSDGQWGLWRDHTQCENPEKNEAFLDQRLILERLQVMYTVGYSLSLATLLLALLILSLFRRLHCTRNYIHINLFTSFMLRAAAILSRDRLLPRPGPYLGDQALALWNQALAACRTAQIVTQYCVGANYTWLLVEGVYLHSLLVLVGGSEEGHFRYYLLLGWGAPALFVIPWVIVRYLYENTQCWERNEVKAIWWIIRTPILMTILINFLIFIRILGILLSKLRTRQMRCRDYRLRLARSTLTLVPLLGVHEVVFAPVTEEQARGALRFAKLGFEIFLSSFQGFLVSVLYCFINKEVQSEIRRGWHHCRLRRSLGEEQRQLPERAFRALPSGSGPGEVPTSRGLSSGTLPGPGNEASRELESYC
From the text: as §1, §2

GLP-1 receptor (GLP-1R) = molecular target: T3, GLP-1 receptor (GLP-1R) (Homo sapiens, UniProt P43220); assay: Radioligand competition binding (SPA), human GLP-1R membranes; conditions: HEK293 membranes, SPA, bacitracin present; mean; read-out: Ki, GLP-1R
T3 construct: expressed in transfected cells; host or cells: HEK293 (membranes)
From the text: as §1, §2

hGcgR = molecular target: T4, hGcgR (Homo sapiens, UniProt P47871); assay: cAMP assay in HEK293 cells expressing hGcgR, 0.1% casein; format: cell-based; conditions: in the presence of 0.1% casein; read-out: cAMP EC50, GcGR
T4 construct: expressed in transfected cells; host or cells: HEK293

hGIPR = molecular target: T5, hGIPR (Homo sapiens, UniProt P48546); assay: cAMP assay in HEK293 cells expressing hGIPR, 0.1% casein; format: cell-based; conditions: in the presence of 0.1% casein; read-out: cAMP EC50, GIPR
T5 construct: expressed in transfected cells; host or cells: HEK293
T5 sequence (P48546 22-466): T2 sequence (P48546 22-466)

T4 sequence (P47871 26-477): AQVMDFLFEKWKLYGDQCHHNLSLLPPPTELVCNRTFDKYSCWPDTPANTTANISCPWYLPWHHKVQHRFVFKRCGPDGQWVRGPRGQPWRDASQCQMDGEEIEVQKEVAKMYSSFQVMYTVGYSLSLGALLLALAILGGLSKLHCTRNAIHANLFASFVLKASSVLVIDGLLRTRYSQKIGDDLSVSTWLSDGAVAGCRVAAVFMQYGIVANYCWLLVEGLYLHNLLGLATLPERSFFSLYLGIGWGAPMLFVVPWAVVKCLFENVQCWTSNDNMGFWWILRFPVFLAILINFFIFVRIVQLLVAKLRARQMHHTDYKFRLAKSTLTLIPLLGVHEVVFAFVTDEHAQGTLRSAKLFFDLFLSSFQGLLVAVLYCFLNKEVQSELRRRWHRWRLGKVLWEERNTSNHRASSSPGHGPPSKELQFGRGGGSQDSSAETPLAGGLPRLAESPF
T1 sequence (P47871 26-477): as above
T3 sequence (P43220 24-463): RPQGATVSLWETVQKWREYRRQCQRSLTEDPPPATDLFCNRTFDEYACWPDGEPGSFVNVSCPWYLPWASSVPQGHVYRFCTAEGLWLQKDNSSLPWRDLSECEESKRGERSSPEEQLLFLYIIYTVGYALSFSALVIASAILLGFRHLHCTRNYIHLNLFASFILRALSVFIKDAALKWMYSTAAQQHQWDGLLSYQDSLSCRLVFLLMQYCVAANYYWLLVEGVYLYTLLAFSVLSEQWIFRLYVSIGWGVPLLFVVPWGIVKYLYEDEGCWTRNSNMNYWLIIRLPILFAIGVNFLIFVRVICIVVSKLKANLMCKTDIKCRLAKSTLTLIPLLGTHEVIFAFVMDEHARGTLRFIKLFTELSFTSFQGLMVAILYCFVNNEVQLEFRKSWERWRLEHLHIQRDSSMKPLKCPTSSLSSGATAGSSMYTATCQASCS
Sequence of hGLP-1R (P43220 24-463): as above

Structure (SMILES)	EC50 (hGLP-1R) [nM]	Ki [1] [nM]	Ki [2] [nM]	Ki (GLP-1 receptor (GLP-1R)) [nM]	EC50 (hGcgR) [nM]	EC50 (hGIPR) [nM]
CC[C@H](C)[C@H](NC(=O)[C@H](Cc1ccccc1)NC(=O)[C@H](C)NC(=O)[C@H](Cc1c[nH]cn1)NC(=O)[C@H](CCC(N)=O)NC(=O)[C@H](C)NC(=O)[C@H](CCCCNC(=O)CC[C@H](NC(=O)CC[C@H](NC(=O)CCCCCCCCCCCCCCCCCCC(=O)O)C(=O)O)C(=O)O)NC(=O)[C@H](CCCCN)NC(=O)[C@H](CC(=O)O)NC(=O)[C@H](CC(C)C)NC(=O)[C@](C)(CC(C)C)NC(=O)[C@@H](NC(=O)[C@H](CO)NC(=O)[C@H](Cc1ccc(O)cc1)NC(=O)[C@H](CC(=O)O)NC(=O)[C@H](CO)NC(=O)[C@@H](NC(=O)[C@H](Cc1ccccc1)NC(=O)[C@@H](NC(=O)CNC(=O)[C@H](CCC(N)=O)NC(=O)C(C)(C)NC(=O)[C@@H](N)Cc1ccc(O)cc1)[C@@H](C)O)[C@@H](C)O)[C@@H](C)CC)C(=O)N[C@@H](CCC(=O)O)C(=O)N[C@@H](Cc1ccc(O)cc1)C(=O)N[C@@H](CC(C)C)C(=O)N[C@@H](CC(C)C)C(=O)N[C@@H](CCC(=O)O)C(=O)NCC(=O)NCC(=O)N1CCC[C@H]1C(=O)N[C@@H](CO)C(=O)N[C@@H](CO)C(=O)NCC(=O)N[C@@H](C)C(=O)N1CCC[C@H]1C(=O)N1CCC[C@H]1C(=O)N1CCC[C@H]1C(=O)N[C@@H](CO)C(N)=O [Example 9] (H-Y[Aib]QGTFTSDYSI[αMeL]LDKK([γGlu-γGlu-C20 diacid])AQHAFIEYLLEGGPSSGAPPPS-NH2; N-terminus assumed)	0.0931	8.27	0.126	11.5	0.139	0.0522
CC[C@H](C)[C@H](NC(=O)[C@H](Cc1ccccc1)NC(=O)[C@H](C)NC(=O)C(C)(C)NC(=O)[C@H](CCC(N)=O)NC(=O)[C@H](C)NC(=O)[C@H](CCCCNC(=O)COCCOCCNC(=O)CC[C@H](NC(=O)CCCCCCCCCCCCCCCCCCC(=O)O)C(=O)O)NC(=O)[C@H](CCCCN)NC(=O)[C@H](CC(=O)O)NC(=O)[C@H](CC(C)C)NC(=O)[C@](C)(CC(C)C)NC(=O)[C@@H](NC(=O)[C@H](CO)NC(=O)[C@H](Cc1ccc(O)cc1)NC(=O)[C@H](CC(=O)O)NC(=O)[C@H](CO)NC(=O)[C@@H](NC(=O)[C@H](Cc1ccccc1)NC(=O)[C@@H](NC(=O)CNC(=O)[C@H](CCC(N)=O)NC(=O)C(C)(C)NC(=O)[C@@H](N)Cc1ccc(O)cc1)[C@@H](C)O)[C@@H](C)O)[C@@H](C)CC)C(=O)N[C@@H](CCC(=O)O)C(=O)N[C@@H](Cc1ccc(O)cc1)C(=O)N[C@@H](CC(C)C)C(=O)N[C@@H](CC(C)C)C(=O)N[C@@H](CCC(=O)O)C(=O)NC(C)(C)C(=O)NCC(=O)N1CCC[C@H]1C(=O)N[C@@H](CO)C(=O)N[C@@H](CO)C(=O)NC(C)(C)C(=O)N[C@@H](C)C(=O)N1CCC[C@H]1C(=O)N1CCC[C@H]1C(=O)N1CCC[C@H]1C(=O)N[C@@H](CO)C(N)=O [Example 14] (H-Y[Aib]QGTFTSDYSI[αMeL]LDKK([AEEA-γGlu-C20 diacid])AQ[Aib]AFIEYLLE[Aib]GPSS[Aib]APPPS-NH2; N-terminus assumed)	0.146	2.64	0.035	6.27	0.0876	0.0356
CC[C@H](C)[C@H](NC(=O)[C@H](Cc1ccccc1)NC(=O)[C@H](C)NC(=O)C(C)(C)NC(=O)[C@H](CCC(N)=O)NC(=O)[C@H](C)NC(=O)[C@H](CCCCNC(=O)COCCOCCNC(=O)COCCOCCNC(=O)CC[C@H](NC(=O)CCCCCCCCCCCCCCCCCCC(=O)O)C(=O)O)NC(=O)[C@H](CCCCN)NC(=O)[C@H](CC(=O)O)NC(=O)[C@H](CC(C)C)NC(=O)[C@H](CC(C)C)NC(=O)[C@@H](NC(=O)[C@H](CO)NC(=O)[C@H](Cc1ccc(O)cc1)NC(=O)[C@H](CC(=O)O)NC(=O)[C@H](CO)NC(=O)[C@@H](NC(=O)[C@H](Cc1ccccc1)NC(=O)[C@@H](NC(=O)CNC(=O)[C@H](CCC(N)=O)NC(=O)C(C)(C)NC(=O)[C@@H](N)Cc1ccc(O)cc1)[C@@H](C)O)[C@@H](C)O)[C@@H](C)CC)C(=O)N[C@@H](CCC(=O)O)C(=O)N[C@@H](Cc1ccc(O)cc1)C(=O)N[C@@H](CC(C)C)C(=O)N[C@@H](CC(C)C)C(=O)N[C@@H](C)C(=O)NC(C)(C)C(=O)NCC(=O)N1CCC[C@H]1C(=O)N[C@@H](CO)C(=O)N[C@@H](CO)C(=O)NCC(=O)N[C@@H](C)C(=O)N1CCC[C@H]1C(=O)N1CCC[C@H]1C(=O)N1CCC[C@H]1C(=O)N[C@@H](CO)C(N)=O [Example 15] (H-Y[Aib]QGTFTSDYSILLDKK([AEEA-AEEA-γGlu-C20 diacid])AQ[Aib]AFIEYLLA[Aib]GPSSGAPPPS-NH2; N-terminus assumed)	0.253	4.56	0.0972	5.8	0.131	0.0689
CC[C@H](C)[C@H](NC(=O)[C@H](Cc1ccccc1)NC(=O)[C@H](C)NC(=O)C(C)(C)NC(=O)[C@H](CCC(N)=O)NC(=O)[C@H](C)NC(=O)[C@H](CCCCNC(=O)COCCOCCNC(=O)COCCOCCNC(=O)CC[C@H](NC(=O)CCCCCCCCCCCCCCCCCCC(=O)O)C(=O)O)NC(=O)[C@H](CCCCN)NC(=O)[C@H](CC(=O)O)NC(=O)[C@H](CC(C)C)NC(=O)[C@H](CC(C)C)NC(=O)[C@@H](NC(=O)[C@H](CO)NC(=O)[C@H](Cc1ccc(O)cc1)NC(=O)[C@H](CC(=O)O)NC(=O)[C@H](CO)NC(=O)[C@@H](NC(=O)[C@H](Cc1ccccc1)NC(=O)[C@@H](NC(=O)CNC(=O)[C@H](CCC(N)=O)NC(=O)C(C)(C)NC(=O)[C@@H](N)Cc1ccc(O)cc1)[C@@H](C)O)[C@@H](C)O)[C@@H](C)CC)C(=O)N[C@@H](CCC(=O)O)C(=O)N[C@@H](Cc1ccc(O)cc1)C(=O)N[C@@H](CC(C)C)C(=O)N[C@@H](CC(C)C)C(=O)N[C@@H](CCC(=O)O)C(=O)NC(C)(C)C(=O)NCC(=O)N1CCC[C@H]1C(=O)N[C@@H](CO)C(=O)N[C@@H](CO)C(=O)NCC(=O)N[C@@H](C)C(=O)N1CCC[C@H]1C(=O)N1CCC[C@H]1C(=O)N1CCC[C@H]1C(=O)N[C@@H](CO)C(N)=O [Example 17] (H-Y[Aib]QGTFTSDYSILLDKK([AEEA-AEEA-γGlu-C20 diacid])AQ[Aib]AFIEYLLE[Aib]GPSSGAPPPS-NH2)	0.153	5.81	0.0895	10.2	0.135	0.0439
CC[C@H](C)[C@H](NC(=O)[C@H](Cc1ccccc1)NC(=O)[C@H](C)NC(=O)C(C)(C)NC(=O)[C@H](CCC(N)=O)NC(=O)[C@H](C)NC(=O)[C@H](CCCCNC(=O)COCCOCCNC(=O)CC[C@H](NC(=O)CC[C@H](NC(=O)CCCCCCCCCCCCCCCCCCC(=O)O)C(=O)O)C(=O)O)NC(=O)[C@H](CCCCN)NC(=O)[C@H](CC(=O)O)NC(=O)[C@H](CC(C)C)NC(=O)[C@H](CC(C)C)NC(=O)[C@@H](NC(=O)[C@H](CO)NC(=O)[C@H](Cc1ccc(O)cc1)NC(=O)[C@H](CC(=O)O)NC(=O)[C@H](CO)NC(=O)[C@@H](NC(=O)[C@H](Cc1ccccc1)NC(=O)[C@@H](NC(=O)CNC(=O)[C@H](CCC(N)=O)NC(=O)C(C)(C)NC(=O)[C@@H](N)Cc1ccc(O)cc1)[C@@H](C)O)[C@@H](C)O)[C@@H](C)CC)C(=O)N[C@@H](CCC(=O)O)C(=O)N[C@@H](Cc1ccc(O)cc1)C(=O)N[C@@H](CC(C)C)C(=O)N[C@@H](CC(C)C)C(=O)N[C@@H](CCC(=O)O)C(=O)NC(C)(C)C(=O)NCC(=O)N1CCC[C@H]1C(=O)N[C@@H](CO)C(=O)N[C@@H](CO)C(=O)NCC(=O)N[C@@H](C)C(=O)N1CCC[C@H]1C(=O)N1CCC[C@H]1C(=O)N1CCC[C@H]1C(=O)N[C@@H](CO)C(N)=O [Example 19] (H-Y[Aib]QGTFTSDYSILLDKK([AEEA-γGlu-γGlu-C20 diacid])AQ[Aib]AFIEYLLE[Aib]GPSSGAPPPS-NH2; N-terminus assumed)	0.143	5.2	0.0789	12	0.0874	0.0455

Source: patent US11542313B2, “Incretin analogs and uses thereof” (Eli Lilly and Company, priority 2017, dated 2023)
